Source: patent publication US6667165B2, “Method and compositions for reversible inhibition of thermostable polymerases” (Eppendorf AG, priority 2001, dated 2003)

How the values were obtained:
Type in all cases: biochemical
Taq DNA polymerase [1] = target: T1, Taq DNA polymerase (Thermus aquaticus, UniProt P19821); experiment: M13 phage DNA primer extension assay (agarose gel read-out); settings: for restoration of Taq DNA polymerase activity at 60° C.: concentration range tested, lowest 10 μmol; for inhibition of Taq DNA polymerase at 40° C. (FIG. 5) / inhibition of Taq DNA polymerase (FIG. 6): 40° C.; for inhibitory effect on Taq DNA polymerase in primer extension assay: 51° C., carbohydrates 1% w/vol, ds Lambda DNA 5 μg/rxn, 10 minutes pre-incubation with Taq
T1 construct: purchased Eppendorf AG
T1 sequence (P19821 whole entry): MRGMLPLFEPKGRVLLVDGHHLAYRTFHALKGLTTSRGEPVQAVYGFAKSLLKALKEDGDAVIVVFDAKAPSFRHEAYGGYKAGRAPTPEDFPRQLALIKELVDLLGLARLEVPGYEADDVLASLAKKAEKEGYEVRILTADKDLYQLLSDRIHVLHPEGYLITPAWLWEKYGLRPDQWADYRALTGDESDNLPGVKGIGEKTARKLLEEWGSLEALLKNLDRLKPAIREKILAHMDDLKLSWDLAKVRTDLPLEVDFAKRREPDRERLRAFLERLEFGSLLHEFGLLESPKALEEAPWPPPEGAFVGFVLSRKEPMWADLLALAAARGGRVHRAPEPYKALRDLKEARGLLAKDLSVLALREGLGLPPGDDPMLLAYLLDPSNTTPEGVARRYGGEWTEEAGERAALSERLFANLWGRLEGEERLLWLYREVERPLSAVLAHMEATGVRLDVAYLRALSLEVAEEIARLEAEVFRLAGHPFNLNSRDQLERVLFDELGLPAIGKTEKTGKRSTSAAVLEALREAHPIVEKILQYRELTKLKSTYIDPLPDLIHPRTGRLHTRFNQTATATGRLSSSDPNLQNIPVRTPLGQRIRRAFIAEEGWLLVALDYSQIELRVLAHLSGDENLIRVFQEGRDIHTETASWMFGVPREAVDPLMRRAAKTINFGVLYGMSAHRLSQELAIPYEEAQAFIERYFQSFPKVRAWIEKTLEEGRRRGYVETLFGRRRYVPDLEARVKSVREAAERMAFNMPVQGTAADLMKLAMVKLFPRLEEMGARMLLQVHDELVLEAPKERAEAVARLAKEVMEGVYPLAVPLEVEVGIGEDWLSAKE
Source text: A simple non-radioactive primer extension assay was used to monitor the activity of Taq DNA polymerase for DNA synthesis at various temperatures. The universal −47 M13 24-mer sequencing primer (New England Biolabs, Inc.) was annealed to circular single-stranded virion DNA from E. coli phage M13 (New England Biolabs, Inc.) to form an appropriate template for DNA synthesis by Taq DNA polymerase.
During the assay reactions, the annealed primer is extended by stepwise addition of complementary nucleotides (dNTP) on the single-stranded template DNA with Taq polymerase. The polymerase mediated primer extension reaction transforms the circular single-stranded (ss) template DNA into a double-stranded (ds) plasmid-like circular DNA molecule, as shown in FIG. 1. A completely ds circular phage DNA molecule is synthesized when the de-novo synthesized complementary strand reaches the 5′ end of the extended primer. This terminates the DNA synthesis process due to the weak strand displacement activity of Taq DNA polymerase. The ss primed template DNA, the full length ds circular DNA synthesis product, and intermediate synthesis products with ds regions of variable length differ from each other by their electrophoretic mobility in 1% agarose gels. The initial DNA template and all reaction products can be separated and monitored by electrophoresis in a 1% […] agarose gel stained with ethidium bromide.
The electrophoretic mobility of the three species reciprocally correlates with the length of the de-novo synthesized complementary strand. With increasing length of the ds regions, the migration of intermediate primer extension products shifts toward the slow migrating band of ds circular DNA (full-length synthesis product). The amount (band intensity) of the ds full-length synthesis product, as well as the migration shift of intermediate primer extension product, were used as a measure for the activity and extension rate of Taq DNA polymerase under various reaction conditions.
After the denaturation/annealing reaction the primed ss template DNA was stored frozen at −20° C. until use. 5 μL of this primed ss template DNA mix were added into a 50 μL primer extension assay reaction, or 2 μL into a 20 μL assay, respectively. The primer extension assay reactions were set-up on ice in 0.2 mL PCR tubes adding the reaction components to the following final concentrations:
The primer extension reactions were incubated for either 20 or 40 minutes on Eppendorf Mastercyclers set to the desired reaction temperature (30° C.-70° C.). At the end of the incubation time the reaction were placed on ice and 1 μL of 100 mM EDTA was added to stop the reaction immediately. 20 μL of each primer extension assay reaction were loaded on the 1% agarose gel for further analysis.
Soluble carbohydrates 5% w/vol aqueous solutions in molecular biology grade water were prepared. The desired carbohydrates or ds DNA were added to the primer extension reaction described above in Example 2 to final concentrations of 1% w/vol. In modification of the original primer extension assay the reaction mixtures were set-up without the primed template DNA. The primer-template DNA was added to the Taq DNA polymerase/carbohydrate sample after a 10 minutes pre-incubation in order to permit preliminary interaction of the carbohydrate with the Taq DNA polymerase, i.e., pre-incubate the carbohydrate onto the Taq DNA polymerase. The primer extension reactions were incubated for 40 minutes at 51° C. (the critical temperature for specific primer annealing). 20 μl of the reaction mixtures were analyzed on 0.7% agarose gel.
Primer extension assays were carried out in the presence of various concentration of dextran sulfate Mw 1500 (see FIG. 4), Mw 4000, Mw 5000 and Mw 8000 (see FIGS. 5 and 6). The reaction set-up was modified so that the dextran sulfates were pre-mixed into the Taq polymerase solution (5 U/μl) to provide final concentrations as indicated in the Figures. […]

Taq DNA polymerase [2] = target: T1, Taq DNA polymerase; experiment: 2 kb human β-globin gene fragment PCR, specificity and yield on agarose gel
Experimental: In order to amplify a predictable sized DNA fragment of the human β-globin gene, a pair of known primers was selected from a region of the human β-globin gene (Collins et al (1984) Prog Nucleic Acid Res Mol Biol 31:315-462 to yield PCR products with length of 2.0 kb: The Taq DNA polymerase 5 U/μl containing 0.2 mM dextran sulfate Mw4000 was used in the PCR mixtures (10 mM Tris-HCl, pH 8.3, 50 mM KCl, 2.5 mM Mg(OAc)2, 200 μM dNTP) in which human genomic DNA (100 ng) was used as template. The PCR was performed as follows: 94° C. for 2 min followed by 35 cycles of 55° C.—20 seconds, 72° C.—2:30 minutes and 94° C. for −15 seconds. The PCR products were subjected to agarose gel electrophoresis. Negative control experiments were carried out under the same PCR conditions except that unmodified Taq DNA Polymerase was used in the reaction. A positive control experiment was carried out in the same PCR conditions except that AmpliTaq Gold DNA Polymerase (Perkin Elmer Biosystems), the market leading product for performing highly specific hot start PCR, with the appropriate reaction buffer were used in the reaction.
The same basic PCR assay was performed as described in the previous Examples, except that Taq DNA polymerase preparations were mixed with increasing amounts of dextran sulfate Mw4000. […]

Taq DNA polymerase [3] = target: T1, Taq DNA polymerase; experiment: Primer extension assay quantified with picogreen (de-novo synthesized ds DNA); settings: Mw4000, Mw5000, Mw8000 at 175 μmol, 30 μmol and 32 μmol; 5 minutes incubation; FIG. 10
Source text: FIG. 10 graphically illustrates the temperature dependent inhibition of Taq DNA polymerase by dextran sulfate Mw4000, Mw5000, and Mw8000 which have been quantitatively analyzed. In each reaction the amount of de-novo synthesized double-stranded DNA was quantified with picogreen on a Fluorescence Microplate Reader. The amount of double-stranded DNA in the control reactions with unmodified Taq polymerase at each temperature tested were taken as 100% activity at the corresponding reaction temperature. […] at the corresponding reaction temperature and multiplied by 100 to calculate the percent of residual activity of dextran sulfate inhibited Taq polymerase from the activity of the unmodified enzyme at that temperature (bold line graphs). 100 minus the percent of residual activity of dextran sulfate inhibited Taq polymerase represents the percent of relative activity inhibition of dextran sulfate/Taq polymerase complexes at each temperature shown with dotted line graphs.
Primer extension was set-up as described in Example 4. The final concentrations of dextran sulfate Mw4000, Mw5000 and Mw8000 were adjusted to 175 μmol, 30 μmol and 32 μmol, respectively. At each tested incubation temperature a control reaction was carried out with unmodified Taq polymerase. After 5 minutes incubation the reactions were stopped as described earlier. 25.2 μl out of 50 μl were used to quantify the yield of de-novo synthesized double-stranded DNA with picogreen. The picogreen stained DNA samples were measured on a Fluorescence Microplate Reader.
The amount of double-stranded DNA in the control reactions with unmodified Taq polymerase at each temperature tested were taken as 100% activity at the corresponding reaction temperature. […]

[4] = 20 minutes, first concentration ranges
[5] = 20 minutes, re-fined concentration ranges

With “dextran sulfate [dextran sulfate Mw 1500]” as the substance, how does the “concentration at which partial release of inhibition was detected” value (Taq DNA polymerase [1]; 50° C. and 60° C., FIG. 4) read?
Its value is under 50 µmol.

What about the “restoration of Taq DNA polymerase activity at 60° C.” value (Taq DNA polymerase [1]; 20 minutes) of the same substance?
Its value is “only be partially restored”.

What about the “restoration of Taq DNA polymerase activity at 60° C.” value (Taq DNA polymerase [1]; 20 minutes, listed as dextran sulfate Mw 1,500) of the same substance?
Its value is “full synthesis activity could not be regained”.

What does the source list for “dextran sulfate [dextran sulfate Mw 4000]”?
inhibition of Taq DNA polymerase at 40° C. (FIG. 5) (Taq DNA polymerase [1]; [4]): strong inhibition; inhibition of Taq DNA polymerase (FIG. 6) (Taq DNA polymerase [1]; [5]): strong inhibition; effect on specificity of the PCR reaction (Taq DNA polymerase [2]; 100 ng human genomic DNA, Taq 5 U/μl containing 0.2 mM dextran sulfate, 35 cycles, FIG. 7): significantly enhanced the specificity; yield and specificity of the 2 kb PCR fragment versus concentration (Taq DNA polymerase [2]; increasing amounts of dextran sulfate, FIG. 8): clear correlation; temperature dependence of Taq DNA polymerase inhibition (relative to unmodified Taq) (Taq DNA polymerase [3]): inhibit Taq DNA polymerase in a temperature dependent manner

“dextran sulfate [dextran sulfate Mw 5000]” was tested. Which “inhibition of Taq DNA polymerase at 40° C. (FIG. 5)” value (Taq DNA polymerase [1]; [4]) did it give?
Its value is “strong inhibition”.

What about the “inhibition of Taq DNA polymerase (FIG. 6)” value (Taq DNA polymerase [1]; [5]) of the same substance?
Its value is “strongest inhibition of all dextran sulfate derivatives tested”.

What about the “inhibitory effect on Taq DNA polymerase in primer extension assay” value (from here on “inhibitory effect on Taq DNA polymerase”) (Taq DNA polymerase [1]; MW 5000) of the same substance?
Its value is “strong inhibition”.

And the “inhibitory effect on Taq DNA polymerase” value (Taq DNA polymerase [1]; listed as dextran sulfate having a molecular weight of 5000)?
The value was “strong inhibitor”.

What about the “concentration at which almost full Taq polymerase activity could be restored between 60-70° C.” value (Taq DNA polymerase [1]; 20 minutes, dextran sulfate pre-mixed into Taq polymerase solution) of the same substance?
The value was 1.25 µM.

And the “concentration range with strong inhibition at 40° C. and release of almost full activity at 70° C. (FIG. 5)” value (Taq DNA polymerase [1]; first concentration ranges, 40° C.-70° C., 20 minutes)?
Its value is 1.25 µmol.

And the “concentration range with strong inhibition at 40° C. and release of almost full activity at 70° C. (FIG. 6)” value (Taq DNA polymerase [1]; re-fined concentration ranges, 40° C.-70° C., 20 minutes)?
Its value is 1.25 µmol.

What about the “temperature dependence of Taq DNA polymerase inhibition (relative to unmodified Taq)” value (Taq DNA polymerase [3]) of the same substance?
Its value is “inhibit Taq DNA polymerase in a temperature dependent manner”.

How did the “inhibition of Taq DNA polymerase at 40° C. (FIG. 5)” value (Taq DNA polymerase [1]; [4]) turn out when “dextran sulfate [dextran sulfate Mw 8000]” was run?
Its value is “strong inhibition”.

What about the “inhibition of Taq DNA polymerase (FIG. 6)” value (Taq DNA polymerase [1]; [5]) of the same substance?
The value was “strong inhibition”.

And the “temperature dependence of Taq DNA polymerase inhibition (relative to unmodified Taq)” value (Taq DNA polymerase [3])?
The value was “inhibit Taq DNA polymerase in a temperature dependent manner”.

With methylcellulose [reference compound] as the substance, how does the “inhibitory effect on Taq DNA polymerase” value (Taq DNA polymerase [1]) read?
Its value is “weak inhibitory effect”.
